Laboratory results published in ChEMBL document CHEMBL4382212, “Tetrazolylpropan-2-ones as inhibitors of fatty acid amide hydrolase: Studies on structure-activity relationships and metabolic stability” (Eur J Med Chem, 2018).

Test: Partition coefficient, log P of the compound at 5 mM by reversed phase HPLC analysis
Assay type: physicochemical
Conditions: octanol/water

SMILES	logP at 5000 µM
CCCCCCCCc1ccc(OCC(=O)Cn2nnc(-c3ccc(C(=O)OC)cc3)n2)cc1	8
CC(Oc1ccc(-c2ccccc2)cc1)C(=O)Cn1nnc(-c2ccc(C(=O)O)cc2)n1 (centres undefined)	2.6
CCCCCCCCc1ccc(OC(C)C(=O)Cn2nnc(-c3ccc(C(=O)OC)cc3)n2)cc1 (centres undefined)	> 8
CCCCCCCCc1ccc(OC(C)C(=O)Cn2nnc(-c3ccc(Cl)cc3)n2)cc1 (centres undefined)	> 8
COC(=O)c1ccc(-c2nnn(CC(=O)C(C)Oc3ccc(Oc4ccc(C(F)(F)F)cc4)cc3)n2)cc1 (centres undefined)	6.2
CC(Oc1ccc(Oc2ccc(Cl)cc2)cc1)C(=O)Cn1nnc(-c2ccc(C(=O)O)cc2)n1 (centres undefined)	3.3
CC(Oc1ccc(-c2ccccc2)cc1)C(=O)Cn1nnc(-c2ccc(Cl)cc2)n1 (centres undefined)	6.1
CCCCCCCCc1ccc(OCC(=O)Cn2nnc(-c3ccccc3)n2)cc1	8
CCCCCCCCc1ccc(OCC(=O)Cn2nnc(C(=O)O)n2)cc1	5.3
CCCCCCCCc1ccc(OC(C)C(=O)Cn2nnc(-c3ccccc3)n2)cc1 (centres undefined)	> 8
CCCCCCCCc1ccc(OC(C)C(=O)Cn2nnc(-c3ccc(C(=O)O)cc3)n2)cc1 (centres undefined)	5.9
CC(Oc1ccc(-c2ccccc2)cc1)C(=O)Cn1nnc(-c2ccccc2)n1 (centres undefined)	5.3
CC(Oc1ccc(Oc2ccc(Cl)cc2)cc1)C(=O)Cn1nnc(-c2ccc(Cl)cc2)n1 (centres undefined)	6.8
CC(Oc1ccc(Oc2ccc(C(F)(F)F)cc2)cc1)C(=O)Cn1nnc(-c2ccc(C(=O)O)cc2)n1 (centres undefined)	3.5
CC(Oc1ccc(Oc2ccc(F)cc2)cc1)C(=O)Cn1nnc(-c2ccc(Cl)cc2)n1 (centres undefined)	6.2
CCCCCCCCc1ccc(OCC(=O)Cn2nnc(-c3ccc(Cl)cc3)n2)cc1	> 8
CC(Oc1ccc(Oc2ccc(Cl)cc2)cc1)C(=O)Cn1nnc(-c2ccccc2)n1 (centres undefined)	6
CC(Oc1ccc(Oc2ccc(F)cc2)cc1)C(=O)Cn1nnc(-c2ccc(C(=O)O)cc2)n1 (centres undefined)	2.7
CC(Oc1ccc(Oc2ccc(F)cc2)cc1)C(=O)Cn1nnc(-c2ccccc2)n1 (centres undefined)	5.3
COC(=O)c1ccc(-c2nnn(CC(=O)C(C)Oc3ccc(-c4ccccc4)cc3)n2)cc1 (centres undefined)	5.4
CC(Oc1ccc(Oc2ccc(C(F)(F)F)cc2)cc1)C(=O)Cn1nnc(-c2ccc(Cl)cc2)n1 (centres undefined)	7
COC(=O)c1ccc(-c2nnn(CC(=O)C(C)Oc3ccc(Oc4ccc(Cl)cc4)cc3)n2)cc1 (centres undefined)	6.1
COC(=O)c1ccc(-c2nnn(CC(=O)C(C)Oc3ccc(Oc4ccc(F)cc4)cc3)n2)cc1 (centres undefined)	5.4
CC(Oc1ccc(Oc2ccc(C(F)(F)F)cc2)cc1)C(=O)Cn1nnc(-c2ccccc2)n1 (centres undefined)	6.2
